Among the data in PubChem BioAssay (NCI) are TGI values, retold here.

Some test systems named below: A549 NSCLC; HT29 colon; HL-60(TB) leukemia; SNB-19 CNS; HS 578T breast; MCF7 breast; SF-295 CNS; MDA-MB-231 breast; HOP-92 NSCLC; NCI-H23 lung.
What all share (assay): NCI anticancer screen, dose series, 48 h

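Interpolation was linear, between the two tested concentrations surrounding the appropriate level; five concentrations were tested over 48 hours in 96-well plates. TGI is the concentration that stops growth completely.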

For the compound `c1ccc([I+]c2ccccc2)cc1`, the TGI with A549 NSCLC, with HT29 colon, in the test on HL-60(TB) leukemia, in the test with SNB-19 CNS, in the test with HS 578T breast and with MCF7 breast was more than 100 µM throughout. The TGI in the test on SF-295 CNS, with MDA-MB-231 breast, with HOP-92 NSCLC and in the test with NCI-H23 lung was more than 100 µM in each case.
For the compound `O=C1CC(NCc2ccccc2)c2c(Cl)sc(Cl)c21` (stereo not given), the TGI in the test with A549 NSCLC was more than 100 µM; in the test with HT29 colon it was 74.5 µM; in the test on HL-60(TB) leukemia, 41.6 µM; in the test with SNB-19 CNS, more than 100 µM; with HS 578T breast, more than 82.5 µM; in the test on MCF7 breast it was 50.3 µM. Moreover, the TGI was more than 100 µM with SF-295 CNS, 66.4 µM in the test on MDA-MB-231 breast, 64.8 µM in the test on HOP-92 NSCLC and 39.5 µM in the test with NCI-H23 lung.
Consider `O=C(CC(Cl)=C(Cl)Cl)c1ccccc1`, for which the TGI in the test on A549 NSCLC, with HT29 colon, in the test with HL-60(TB) leukemia, in the test on SNB-19 CNS, with HS 578T breast and in the test on MCF7 breast was more than 100 µM each time. In addition, the TGI in the test on SF-295 CNS, in the test with MDA-MB-231 breast, in the test with HOP-92 NSCLC and with NCI-H23 lung was more than 100 µM each time.
Take `O=C1CC(=O)NC(=NNS(=O)(=O)c2ccc(Cl)cc2)N1`: the TGI in the test with A549 NSCLC, in the test on HT29 colon, in the test on HL-60(TB) leukemia, with SNB-19 CNS, with HS 578T breast and in the test on MCF7 breast was more than 100 µM throughout. For the same compound, the TGI in the test with SF-295 CNS, in the test with MDA-MB-231 breast, in the test with HOP-92 NSCLC and with NCI-H23 lung was more than 100 µM in each case.
For the compound `CC(=O)Oc1ccc2c3c1O[C@H]1[C@H](O)CC[C@@]4(O)[C@@H](C2)N(C)CC[C@]314`, the TGI with A549 NSCLC, with HT29 colon, in the test with HL-60(TB) leukemia, in the test with SNB-19 CNS, with HS 578T breast and in the test with MCF7 breast was more than 100 µM throughout. Besides, the TGI in the test with SF-295 CNS, with MDA-MB-231 breast, with HOP-92 NSCLC and with NCI-H23 lung was more than 100 µM in each case.
As for `CCOc1cc2c(c(OCC)c1O)CC[C@@H]1[C@@H]2CC[C@]2(C)[C@@H](O)CC[C@@H]12`, the TGI in the test with A549 NSCLC was more than 100 µM; in the test on HT29 colon, 24.7 µM; with HL-60(TB) leukemia, 1.86 µM; with SNB-19 CNS it was more than 100 µM; in the test on HS 578T breast it was 95.1 µM; with MCF7 breast, 53.2 µM. In addition, the TGI in the test with SF-295 CNS worked out at 13.1 µM; in the test on MDA-MB-231 breast, 24.3 µM; with HOP-92 NSCLC, 67.6 µM; with NCI-H23 lung, 41.4 µM.
With `COc1cccc(C2c3cc4c(cc3OC(Nc3ccccc3)C2C)OCO4)c1OC` (stereo not given), the TGI in the test with A549 NSCLC is more than 100 µM; in the test with HT29 colon it was more than 100 µM; in the test with HL-60(TB) leukemia, 6.26 µM; with SNB-19 CNS it was more than 100 µM; with HS 578T breast it was 61.4 µM; in the test with MCF7 breast, more than 100 µM. Besides, the TGI with SF-295 CNS was more than 100 µM; with MDA-MB-231 breast, more than 100 µM; in the test with HOP-92 NSCLC, 60.1 µM; with NCI-H23 lung, more than 100 µM.
As to `CC1C(C#N)(C#N)C(C#N)=C(N)C1(Cl)[N+](=O)[O-]` (stereo not given), the TGI came out at 54.6 µM in the test with A549 NSCLC; 23.5 µM in the test with HT29 colon; 5.16 µM in the test on HL-60(TB) leukemia; 35 µM in the test with SNB-19 CNS; 46.1 µM in the test with HS 578T breast; 47.4 µM in the test on MCF7 breast. Besides, the TGI was 36.1 µM in the test on SF-295 CNS, 26.9 µM with MDA-MB-231 breast, 5.91 µM in the test with HOP-92 NSCLC and 35.3 µM in the test on NCI-H23 lung.
For `COc1cccc(/C=C2\S/C(=N/Nc3nc(-c4ccc([N+](=O)[O-])cc4)cs3)NC2=O)c1O`, the TGI was 39.6 µM in the test on A549 NSCLC; 52.6 µM in the test on HT29 colon; more than 100 µM in the test with HL-60(TB) leukemia; 52.9 µM in the test on SNB-19 CNS; 74.1 µM in the test on HS 578T breast; 38.2 µM with MCF7 breast. The TGI with SF-295 CNS stood at 38.7 µM; in the test on MDA-MB-231 breast it was 41.7 µM; in the test on HOP-92 NSCLC, 33.6 µM; in the test with NCI-H23 lung, 33.5 µM.
As to `CC(C)N(C(C)C)S(=O)(=O)C[C@]12CC[C@H](CC13OCC(CS(=O)(=O)c1ccccc1)O3)C2(C)C` (stereo not given in full), the TGI in the test on A549 NSCLC was more than 100 µM; in the test on HT29 colon, more than 100 µM; in the test on HL-60(TB) leukemia, 61.2 µM; in the test on SNB-19 CNS, more than 100 µM; in the test on HS 578T breast it was more than 100 µM; with MCF7 breast it was more than 100 µM. Further, the TGI is more than 83.8 µM in the test with SF-295 CNS, more than 100 µM with MDA-MB-231 breast, more than 75.3 µM in the test on HOP-92 NSCLC and more than 100 µM in the test with NCI-H23 lung.
Regarding `Cc1cnc2sn(-c3ccc(Br)cc3)c(=O)c2c1`, the TGI in the test on A549 NSCLC was more than 100 µM; in the test with HT29 colon, 75 µM; in the test with HL-60(TB) leukemia it was 49.7 µM; with SNB-19 CNS, more than 100 µM; with HS 578T breast, 88.1 µM; with MCF7 breast, more than 100 µM. The TGI in the test on SF-295 CNS was 97.8 µM; with MDA-MB-231 breast it was more than 100 µM; with HOP-92 NSCLC, 68.8 µM; in the test with NCI-H23 lung, more than 100 µM.
For the compound `OC1CSc2nc3ccccc3n2C1` (stereo not given), the TGI is more than 100 µM in the test with A549 NSCLC; more than 100 µM in the test with HT29 colon; more than 100 µM with HL-60(TB) leukemia; more than 100 µM in the test on SNB-19 CNS; 77.7 µM with HS 578T breast; more than 100 µM in the test with MCF7 breast. Also, the TGI in the test on SF-295 CNS, in the test with MDA-MB-231 breast, in the test on HOP-92 NSCLC and in the test with NCI-H23 lung was more than 100 µM throughout.
